From patent publication US20090291905A1, “FUNGAL PHYTOTOXIN FUSICOCCIN FOR THE TREATMENT AND DIAGNOSIS OF COAGULATION-CORRELATED PATHOLOGIES” (priority 2008, published 2009)
Square brackets hold non-standard residues; d marks the D form. Primed or numbered codes have the meaning given here. Ends that are not written are not given here. * marks the point of attachment. Myristoyl = CCCCCCCCCCCCCC(=O)*; pS′ = not defined here

Tests used:
[1] = tested on: platelet aggregation (PRP); assay: Platelet aggregation in PRP (turbidometric aggregometer); format: cell-based, human; details: for Platelet agglutination/aggregation induced: different FC concentrations, ristocetin 1 mg/ml
Procedure: Aggregation was studied with PRP using a turbidometric aggregometer as described in the Materials and Methods. A: effect of different concentrations of FC and ristocetin 1.0 mg/ml. B: effect of 40 μM FC in the presence of the aggregation antagonist RGDS peptide. C: effect of 40 μM FC in the presence of the cell-permeable 14-3-3 competitor MPAC peptide.
Washed platelets were prepared from platelet-rich plasma (PRP) obtained from healthy donors who had not taken medication for at least 9 days before bleeding. Preparation of PRP was performed as described by Dai et al. (2005).
PRPs were preincubated at 37° C. with different FC concentrations and, when indicated 0.1 mM MPaC or 0.75 mM RGDS. Aggregation was measured using a turbidometric platelet aggregometer Chrono-log 560 CA (Chrono-log Corporation, Pa., USA). 500 μl PRP were placed in a cuvette at 37° C. under continuous stirring at 1000 rpm. Aggregation was expressed as percentage of change in light transmission, with the value for the blank sample (PPP, Platelet-Poor Plasma) set at 100% and 0% for PRP.
To determine whether the FC-promoted binding of platelets to vWF results in platelet aggregation, the effect of FC on platelet functionality was assayed using an optical aggregometer. […] To determine whether the FC effect involves 14-3-3 proteins, the MPAC peptide was tested in FC-induced platelet agglutination.

[2] = target: T1, 14-3-3 proteins / bD15Lp peptide (last 15 amino acid residues of GPIbα) (UniProt P07359+P49106); assay: Binding of 32P-labelled 14-3-3 (GF14-6) to resin-bound bD15Lp phosphopeptide; details: 10 μM FC; resin-bound radioactivity; no binding in the absence of FC
T1 construct: GST (pGEX-2TK, with protein kinase A site at the junction, 32P-labelled) (N); made in house; host or cells: E. coli (14-3-3); peptide synthesized by Neosystem
Procedure: (§1) Peptides were immobilized onto streptavidin-agarose resin and incubated with ^32P-labelled 14-3-3 in the absence or in the presence of 10 μM FC. After washing, radioactivity associated with the resin was measured. Data are the mean of three independent experiments.
(§2) 0.5 nmol of biotinylated peptides were immobilized onto 40 μl of streptavidin-agarose resin (Sigma-Aldrich) and incubated in 50 μl of buffer H with 3 μg of ^32P-labelled GF14-6 (1.4 kBq/μg) for 60 min at room temperature in the absence or in the presence of 10 μM FC. Resin was then centrifuged at 2000×g for 5 min and washed three times with 1 ml of buffer H. Resin-bound radioactivity was measured in a liquid scintillation β-counter Packard Tri Carb 2100TR (Canberra, Australia).
(§3) A phosphorylated biotinyl-peptide (bD15Lp), reproducing the last 15 amino acid residues of GPIbα, and containing the 14-3-3 binding sequence, was used in interaction studies with 14-3-3 proteins to verify the ability of FC to stimulate the interaction. The unphosphorylated corresponding peptide ([…]) and peptides reproducing the last 15 amino acids of the H^+-ATPase in unphosphorylated (bL15V) and phosphorylated form (bL15Vp) were used as control.
(§4) The peptides were immobilized onto a streptavidin-agarose resin and incubated with ^32P-labelled 14-3-3 proteins.

[3] = tested on: isolated human platelets; assay: Binding of [3H]FC to isolated human platelets; details: 10 nM [3H]FC, displaced by 10 μM unlabelled FC; 1 h at 37° C.
Procedure: 30 μl of platelet suspension (2.0×10^8/ml) were incubated for 1 h at 37° C. with 5×10^5 dpm [^3H]FC in 100 μl PBS containing 5 mM MgCl2. Where indicated, 10 μM cold FC was added (+FC). Platelets were then sedimented by centrifugation and radioactivity measured by scintillation counting.
30 μl of platelet suspension (2.0×10^8/ml) were incubated for 1 h at 37° C. with 5×10^5 dpm [^3H]FC in 100 μl PBS containing 5 mM MgCl2. To calculate specific binding, control sample was incubated with 10 μM FC. Platelets were centrifuged at 2000 g for 4 min in a refrigerated microcentrifuge and extensively washed in PBS containing 5 mM MgCl2. 500 μl perchloric acid was then added and radioactivity was measured in a liquid scintillation β-counter.
In order to verify whether a FC binding activity is present in purified human platelets, a [^3H]FC analogue (Ballio et al., 1980) was utilised. 30 μl platelet suspension in PBS (2.0×10^8/ml) were incubated with 10 nM [^3H]FC, and after several washings, the platelet-associated radioactivity was measured. The specific [^3H]FC binding was evaluated by adding a saturating concentration of unlabelled FC.

[4] = tested on: platelet adhesion to immobilized vWF; assay: Platelet adhesion to immobilized vWF; format: cell-based, human; details: platelets pre-incubated with FC
Procedure: 90 μl platelet suspension was incubated with purified vWF immobilized onto polystyrene wells. After washings, adherent platelets were determined measuring the endogenous acid phosphatase activity. +FC, platelets previously treated with 40 μM FC; +ADP, incubation in the presence of 50 μM ADP.
Platelet adhesion to immobilized vWF was performed in polystyrene microtitre plate wells as described by Lu et al. (1994) with minor modifications. Briefly, plate wells were coated overnight at 4° C. with 100 μl 15 μg/ml purified vWF and 15 μg/ml BSA. After three washes with PBS unbound sites were saturated with 200 μl of 2 mg/ml BSA for 2 h at RT. After three washings with PBS, wells were incubated with 90 μl platelet suspension (2.0×10^8/ml) previously treated with 40 μM FC. Where indicated, wells were preloaded with 50 μM ADP. After 1 h incubation at RT, non-adherent platelets were removed by 7 washings with a buffer 10 mM Hepes containing 145 mM NaCl, 5 mM KCl, 1 mM MgCl2, 2 mM CaCl2, 10 mM glucose, 3.5 mg/ml BSA, pH 7.35. The number of vWF-bound platelet was calculated by measurement of endogenous acid phosphatase using 130 μl/well of developing buffer (10 mM p-nitrophenyl phosphate, 0.1% Triton X-100, 50 mM sodium citrate, pH 5.5). After 1 h at 37° C. incubation, the reaction was stopped by the addition of 10 μl of 1 M NaOH/well and the plates were read at 405 nm on an automated plate reader. […]

[5] = target: T2, 14-3-3 proteins / GPIbα (UniProt P07359+P49106); assay: Overlay assay of 32P-14-3-3 on blotted platelet proteins; format: binding, human; details: 10 μM FC; autoradiography
T2 construct: GST (pGEX-2TK, with protein kinase A site at the junction, 32P-labelled) (N); made in house; host or cells: E. coli (14-3-3 probe); GPIbα endogenous, from boiled human platelet suspension
T2 sequence (P07359 17-652, one chain of several): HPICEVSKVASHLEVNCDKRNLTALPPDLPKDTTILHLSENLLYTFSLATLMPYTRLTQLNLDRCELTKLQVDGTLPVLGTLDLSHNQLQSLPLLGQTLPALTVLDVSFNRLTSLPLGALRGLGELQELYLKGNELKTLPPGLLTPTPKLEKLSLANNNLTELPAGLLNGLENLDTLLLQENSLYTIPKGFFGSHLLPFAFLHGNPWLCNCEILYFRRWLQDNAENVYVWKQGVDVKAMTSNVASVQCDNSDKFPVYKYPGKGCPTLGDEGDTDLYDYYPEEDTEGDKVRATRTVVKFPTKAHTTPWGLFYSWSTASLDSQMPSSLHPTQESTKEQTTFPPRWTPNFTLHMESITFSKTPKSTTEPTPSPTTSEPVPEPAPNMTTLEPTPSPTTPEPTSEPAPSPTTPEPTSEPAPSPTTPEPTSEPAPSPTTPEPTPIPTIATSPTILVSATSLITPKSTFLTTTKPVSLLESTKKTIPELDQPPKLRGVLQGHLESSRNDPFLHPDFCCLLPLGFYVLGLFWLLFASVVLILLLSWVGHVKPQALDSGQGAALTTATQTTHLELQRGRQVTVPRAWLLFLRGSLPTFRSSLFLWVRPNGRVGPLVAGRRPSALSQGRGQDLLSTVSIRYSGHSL
Procedure: A: SDS-PAGE profile of platelet proteins. B: immunodecoration of GPIbα with anti-GPIbα ([…]) antidoby. C: overlay assay. Maize plasma membrane proteins (lanes 1, positive control) or platelet proteins (lanes 2) were separated by SDS-PAGE, blotted onto nitrocellulose membrane, incubated with ^32P-14-3-3 in the absence (−FC) or in the presence (+FC) of 10 μM FC and subjected to autoradiography as described in the Materials and Methods.
SDS-PAGE was performed as described by Laemmli (1970), in a Mini Protean apparatus (Bio-Rad). The overlay assay was carried out according to Fullone et al. (1998), with minor modifications. The GST-fused 14-3-3 was labelled with [γ^32P]-ATP on cAMP-dependent protein kinase phosphorylation site present at junction between GST and the cloned protein, ^32P-labelled GF14-6 was used as probe in the overlay experiments. 30 μl of platelet suspension (2.0×10^8/mi) was boiled in Laemmli loading buffer, separated on SDS-PAGE and blotted on nitrocellulose membrane by semidry electroblotting. 20 μg of maize plasma membrane proteins were used as positive control. […] Nitrocellulose membrane was extensively washed with buffer HT and radioactivity detected by autoradiography. […]

[6] = target: T3, 14-3-3 proteins / bL15Vp peptide (last 15 amino acids of the H+-ATPase) (Zea mays, UniProt P49106); assay: Binding of 32P-labelled 14-3-3 (GF14-6) to resin-bound bL15Vp phosphopeptide; details: 10 μM FC; resin-bound radioactivity
T3 construct: GST (pGEX-2TK, with protein kinase A site at the junction, 32P-labelled) (N); made in house; host or cells: E. coli (14-3-3); peptide synthesized by Neosystem
T3 sequence (P49106 1-261): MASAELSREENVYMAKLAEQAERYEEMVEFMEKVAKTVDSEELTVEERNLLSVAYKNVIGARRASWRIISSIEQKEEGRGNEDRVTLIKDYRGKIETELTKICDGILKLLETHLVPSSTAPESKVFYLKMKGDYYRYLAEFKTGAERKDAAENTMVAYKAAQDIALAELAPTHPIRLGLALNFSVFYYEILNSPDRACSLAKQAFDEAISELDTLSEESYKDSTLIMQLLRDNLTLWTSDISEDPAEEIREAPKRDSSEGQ
Procedure: as §1, §2, §3, §4

Compound | FC concentration giving maximum agglutination ([1]; PRP, 37° C.) [µM] | Platelet agglutination/aggregation induced ([1]; PRP, 37° C.) | Effect of FC on 14-3-3 binding to immobilized bD15Lp peptide [2] | Specific [3H]FC binding to platelets [3] | Number of platelets adherent to vWF ([4]; in the presence of 50 μM platelet agonist ADP (+ADP)) | Number of platelets adherent to vWF ([4]; resting platelets (−ADP)) | Effect of FC on the interaction between 14-3-3 proteins and GPIbα (135 kDa band) [5] | Effect of FC on 14-3-3 binding to immobilized bL15Vp peptide [6] | Inhibition of FC-induced platelet aggregation ([1]; 40 μM FC, 0.1 mM MPαC or 0.75 mM RGDS)
C=CC(C)(C)OC[C@H]1O[C@H](O[C@@H]2C3=C([C@H](C)COC(C)=O)C[C@H](O)[C@]3(C)/C=C3/[C@@H](COC)CC[C@H]3[C@@H](C)[C@H]2O)[C@H](O)[C@@H](OC(C)=O)[C@@H]1O [FC, fusicoccin] | 40 | slight but reproducible agglutination in a dose-dependent manner | in the presence of the toxin binding is generated | platelets possess specific FC binding activity | significantly increased | significantly increased | the interaction is increased | strongly stimulated | –
C13H27CONH-Ser-lle-Arg-Tyr-Ser-Gly-His-pSer-Leu (Myristoyl-SIRYSGH[pS′]L) [MPαC, reference compound] | – | – | – | – | – | – | – | – | completely inhibits FC effect
ristocetin [reference compound] | – | rapid platelet agglutination | – | – | – | – | – | – | –
